{"source": "patent US11198710B2", "about": "“Transgenic plant having herbicide resistance” (priority 2016, dated 2021)", "key": {"[1]": {"tested_on": "wild-type Arabidopsis thaliana plant (Columbia-0)", "assay": "Sensitivity of wild-type Arabidopsis thaliana to herbicides on MS agar medium", "format": "in vivo", "details": "22° C., 14 days", "description": "A medium was prepared as described below, so as to examine the pyroxasulfone resistance of the Arabidopsis thaliana plant comprising the TaQ8GTC0 gene introduced therein. At the outset, the Murashige-Skoog (MS) media (1 bag), thiamin hydrochloride (3 mg), nicotinic acid (5 mg), pyridoxin hydrochloride (0.5 mg), and sucrose (10 g) were added into a 1-liter beaker, a pH was adjusted to 5.7, the volume of the content was adjusted to 1 liter, and 8 g (0.8%) of agar was added. The resultant was autoclaved and cooled to room temperature, and pyroxasulfone (an acetone solution) was added thereto. A 30-ml fraction thereof was fractionated into a No. 2 square plate to prepare an MS medium containing pyroxasulfone at a given concentration.\nPyroxasulfone sensitivity of transgenic Arabidopsis thaliana plants was tested with the use of the medium prepared above as described below. A necessary amount of Arabidopsis thaliana dry seeds was agitated in 70% ethanol for 2 minutes and in hypochlorous acid containing 0.02% Triton-X-100 for 15 minutes, followed by washing with sterile water 10 times. Subsequently, the seeds were suspended in 1 ml of the autoclaved 0.1% agar solution, the suspension was thoroughly mixed to prepare a homogeneous solution, and a total of 30 seeds were each placed on the medium surface. […]"}, "[2]": {"tested_on": "rice plants comprising the TaQ8GTC1-R gene introduced therein", "assay": "Sensitivity of rice plants comprising the TaQ8GTC1-R gene to pyroxasulfone, gellan gum medium", "format": "in vivo", "details": "strains KLB-872#3-11 and KLB-872#2-4; 10^−8 to 10^−5M", "description": "Pyroxasulfone resistance of 2 rice plants strains (KLB-872#3-11 and KLB-872#2-4) was examined via the germination growth inhibitory test using a gellan gum medium. At the outset, Hoagland's mix and 3 g of gellan gum were suspended in 1 liter of distilled water and thoroughly dissolved therein by heating in a microwave. A fraction of the resultant (15 ml) was poured into a tubular bottle before it was cooled (30 ml was injected into the plate). Pyroxasulfone (acetone solution) was simultaneously added at the time of filling of gellan gum medium into the tubular bottle or plate, followed by thorough mixing. Rice hulls were soaked in a 50-fold diluted sodium hypochlorite solution (antiformin) (Wako) for approximately 20 minutes and then thoroughly washed with water. Sterilized seeds were soaked in distilled water and allowed to stand at 27° C. for germination (for approximately 2 days). […] Thereafter, rice seeds that were determined to have BS resistance with the use of root elongation as the indicator were transferred to gellan gum media containing pyroxasulfone (tubal bottles) at the final concentrations of 10^−8, 10^−7, 10^−6, and 10^−5M, respectively. […] These samples were grown at 27° C. under fluorescent light illumination (14 hours of a light period and 10 hours of a dark period) for 4 to 5 days, and the plant heights were then measured. […]"}}}
{"smiles": "Cn1nc(C(F)(F)F)c(CS(=O)(=O)C2=NOC(C)(C)C2)c1OC(F)F", "note": "[Pyroxasulfone, 3-[5-(difluoromethoxy)-1-methyl-3-(trifluoromethyl)pyrazol-4-ylmethylsulfonyl]-4,5-dihydro-5,5-dimethyl-1,2-oxazole]", "values": [{"measurement": "pyroxasulfone concentration at which growth was substantially completely inhibited", "setting": "[1]", "result": "≥ 1", "unit": "µM"}, {"measurement": "growth of the wild-type Arabidopsis thaliana plant", "setting": "[1]; pyroxasulfone 100 nM", "result": "inhibited to some extent"}, {"measurement": "sensitivity to pyroxasulfone", "setting": "[2]", "result": "sensitivity equivalent to that of wild-type plants"}]}
